Consider 21 compounds from US20090004185A1, “AMINO-SUBSTITUTED QUINAZOLINE DERIVATIVES AS INHIBITORS OF BETA-CATENIN/TCF-4 PATHWAY AND CANCER TREATMENT AGENTS” (WYETH, priority 2007, published 2009).

One assay has as its system β-catenin/Tcf-4. In words: cells. In kind it is cell-based. To be noted: 24 hours of incubation with compound, ratio Firefly/Renilla luciferase. The source says: Background cell line: SW480 colorectal carcinoma DNA constructs:
1) Tcf-4-Luc: Tcf-4 binding sites driving Firefly Luciferase in the pGL3 vector—to measure the activity of β-catenin/Tcf-4;
(§1) 2) SV40-Luc: SV40 binding site driving Firefly Luciferase in the pGL3 vector—as a control for non-specific inhibitors; and
(§2) 3) SV40-R-Luc: SV40 binding site driving Renilla Luciferase in the pGL3 vector—as an internal control for cell number and toxicity.
This screen uses 3 cell lines derived from SW480 and selected to contain the above luciferase reporters integrated into their chromosomes as follows: […]
(§3) Cells: Tcf22C11 and SV5A8 were grown in the presence of 500 μg/ml G418 and Tcf 33.13 was grown in the presence of 500 μg/ml G418+125 μg/ml Zeocin to maintain the integrated reporters. The cells were trypsinized and plated at 1×10^4 cells/well in opaque 96 well plates.
The compounds were diluted as follows: The compounds were stored frozen in dimethyl sulfoxide (DMSO) at […]. Compounds were initially titrated in DMSO to make a 1000×DMSO stock solution. Compounds were then diluted 1:25 into media/DMSO (DMEM+10% FBS+9% DMSO). Using the Biomek Multimek, the diluted compounds were mixed well and immediately added to the plated cells in a 1:40 dilution. The final concentration of DMSO in the assay plates was 0.316% DMSO.
(§4) Assay Readout: The luciferase signal was detected using a luciferase detection kit from Promega. Until December 2003, Promega's Dual-Luciferase® Reporter (DLR™) Assay System was used to detect luciferase activity. Briefly, after 24 hours of incubation with compound, culture media was removed by aspiration and 20 ul of passive lysis buffer (Promega) per well was added. The plates were shaken for 15 min. Firefly substrate was then added and the resulting luminescence was immediately read on a CCD camera imaging device or a luminometer. After quantifying the firefly luminescence, the reaction was quenched, and the Renilla luciferase reaction was initiated simultaneously by adding Stop & Glo® Reagent to the same sample. Renilla luciferase was then quantified using the CCD camera or luminometer.
Promega's Dual-Glo™ Luciferase Assay System can be used for luciferase detection. […] Briefly, after 24 hours of incubation with compound, culture media was removed by aspiration and 75 ul of fresh medium was added. Add 75 ul of Dual-Glo Luciferase Reagent (Promega) to each well and mix by shaking for 10 minutes on a plate shaker. Then, measure the firefly luminescence on a CCD camera imaging device or a luminometer. After quantifying the firefly luminescence, add 75 ul of Dual-Glo Stop & Glo Reagent (Promega) to each well and mix for 10 minutes. Renilla luciferase was then quantified using the CCD camera or luminometer.
(§5) This assay was meant to confirm primary leads and determine IC50s. Compounds were tested at titrated dilutions. The raw data for this assay was reported in protocol 2463-B. Protocol 2463-C contains the IC50 calculations based on the raw data. The data calculations were done as follows:
(§6) The data was expressed as % of control for both Firefly and Renilla Luciferase. The ratio of FF/Renilla (F/R) was then calculated and averaged between duplicate plates. The data was then plotted using LSW Data Analysis in Microsoft Excel. IC50s were determined by plotting the data in the LSW Data Analysis program using model 33. The IC50s (nM) for all three cell lines were reported.

For the next assay, the system named is SV40-Luc. The assay is described as follows: SV40-Luc control luciferase reporter assay, SV 5A8 cell line (SV40-Luc and SV40-R-Luc), control for non-specific inhibitors. Format: cell-based, human. As to conditions: SV 5A8 cells derived from SW480, 24 hours of incubation with compound, ratio Firefly/Renilla luciferase.
Text: Background cell line: SW480 colorectal carcinoma DNA constructs: […]
as §1, §2
This screen uses 3 cell lines derived from SW480 and selected to contain the above luciferase reporters integrated into their chromosomes as follows:
SV 5A8—SV40-Luc and SV40-R-Luc
as §3
Compounds: 20-24 hours after cell plating, compounds were added at titrated concentrations between […]. The compounds were diluted as follows: The compounds were stored frozen in dimethyl sulfoxide (DMSO) at […]. Compounds were initially titrated in DMSO to make a 1000×DMSO stock solution. Compounds were then diluted 1:25 into media/DMSO (DMEM+10% FBS+9% DMSO). Using the Biomek Multimek, the diluted compounds were mixed well and immediately added to the plated cells in a 1:40 dilution. The final concentration of DMSO in the assay plates was 0.316% DMSO.
as §4
Promega's Dual-Glo™ Luciferase Assay System can be used for luciferase detection. It was similar to the DLR Assay, however, unlike the DLR which has to be read immediately due to decaying signal, the signal in the Dual-Glo™ Luciferase Assay was stable for up to 2 hours. Briefly, after 24 hours of incubation with compound, culture media was removed by aspiration and 75 ul of fresh medium was added. Add 75 ul of Dual-Glo Luciferase Reagent (Promega) to each well and mix by shaking for 10 minutes on a plate shaker. Then, measure the firefly luminescence on a CCD camera imaging device or a luminometer. After quantifying the firefly luminescence, add 75 ul of Dual-Glo Stop & Glo Reagent (Promega) to each well and mix for 10 minutes. Renilla luciferase was then quantified using the CCD camera or luminometer.
as §5, §6
For orientation: In a reporter assay the amount or activity of a reporter protein is the signal.

[1] abbreviates: Homo sapiens, SW480, 24 h, Tcf 33.13 cells derived from SW480.
[2] abbreviates: Homo sapiens, Tcf22C11, 24 h, Tcf 22C11 cells derived from SW480.

What is called IC50 is the concentration at which inhibition is half-maximal. Consider “4-chloro-2-fluoro-N-[4-({[6-methyl-2-(methylamino)quinazolin-4-yl]amino}methyl)phenyl]benzamide [Example 26]”, for which the IC50 in the assay with β-catenin/Tcf-4 (Tcf 22C11 cells derived from SW480) is 739 nM; with β-catenin/Tcf-4 (Tcf 33.13 cells derived from SW480), 614 nM; in the assay with SV40-Luc it was over 2780 nM.

Regarding `CNc1nc(NCc2ccc(NC(=O)c3cccnc3Cl)cc2)c2ccccc2n1` [Example 7, 2-chloro-N-[4-({[2-(methylamino)quinazolin-4-yl]amino}methyl)phenyl]nicotinamide], the concentration for half-maximal inhibition (IC50) is over 2980 nM with β-catenin/Tcf-4 (setting [1]); over 2980 nM with β-catenin/Tcf-4 (setting [2]); over 23900 nM in the assay on SV40-Luc (Homo sapiens, SV5A8, 24 h). Take `CNc1nc(NCc2ccc(NC(=O)c3cc(F)c(Cl)nc3Cl)cc2)c2ccccc2n1` [Example 8, 2,6-dichloro-5-fluoro-N-[4-({[2-(methylamino)quinazolin-4-yl]amino}methyl)phenyl]nicotinamide]: the half-maximal inhibitory concentration (IC50) in the assay with β-catenin/Tcf-4 (setting [1]) is 1530 nM; in the assay on β-catenin/Tcf-4 (setting [2]), 1770 nM; with SV40-Luc (Homo sapiens, SV5A8, 24 h) it was over 5300 nM.

On to `CNc1nc(NCc2ccc(NC(=O)c3ccc(Cl)nc3)cc2)c2cc(OC)c(OC)cc2n1` [Example 9, 6-chloro-N-[4-({[6,7-dimethoxy-2-(methylamino)quinazolin-4-yl]amino}methyl)phenyl]nicotinamide], for which the IC50 turned out to be 1070 nM with β-catenin/Tcf-4 (setting [1]); 888 nM in the assay with β-catenin/Tcf-4 (setting [2]); 1520 nM in the assay with SV40-Luc (Homo sapiens, SV5A8, 24 h). The matching figures for `CNc1nc(NCc2ccc(NC(=O)c3ccc(Cl)cc3F)cc2)c2ccccc2n1` [Example 14, 4-chloro-2-fluoro-N-[4-({[2-(methylamino)quinazolin-4-yl]amino}methyl)phenyl]benzamide]: 1290 nM, 891 nM and over 2870 nM. The matching figures for `CNc1nc(NCc2ccc(NC(=O)c3ccc(Cl)cc3Cl)cc2)c2ccccc2n1` [Example 16, 2,4-dichloro-N-[4-({[2-(methylamino)quinazolin-4-yl]amino}methyl)phenyl]benzamide]: 1820 nM, over 2760 nM and over 2760 nM.

With `CNc1nc(NCc2ccc(NC(=O)c3ccc(F)c(C)c3)cc2)c2ccccc2n1` [Example 17, 4-fluoro-3-methyl-N-[4-({[2-(methylamino)quinazolin-4-yl]amino}methyl)phenyl]benzamide], the IC50 with β-catenin/Tcf-4 (setting [1]) was over 6020 nM; with β-catenin/Tcf-4 (setting [2]) it was 7510 nM; in the assay on SV40-Luc (Homo sapiens, SV5A8, 24 h), over 12000 nM.

Regarding `CNc1nc(NCc2ccc(NC(=O)c3ccc(Cl)cc3Cl)cc2)c2cc(C)ccc2n1` [Example 19, 2,4-dichloro-N-[4-({[6-methyl-2-(methylamino)quinazolin-4-yl]amino}methyl)phenyl]benzamide], the IC50 with β-catenin/Tcf-4 (setting [1]) was 12800 nM; in the assay on β-catenin/Tcf-4 (setting [2]) it was over 21400 nM; with SV40-Luc (Homo sapiens, SV5A8, 24 h), over 21400 nM.

Turning to `CNc1nc(NCc2ccc(NC(=O)c3ccc(F)cc3)cc2)c2c(C)cccc2n1` [Example 192, 4-fluoro-N-[4-({[5-methyl-2-(methylamino)quinazolin-4-yl]amino}methyl)phenyl]benzamide], the concentration for half-maximal inhibition (IC50) with SV40-Luc (Homo sapiens, SV5A8, 24 h) is over 3010 nM. The same measure, in the same setting: the result for `CNc1nc(NCc2ccc(NC(=O)c3ccc(Cl)cc3)cc2)c2c(C)cccc2n1` [Example 193, 4-chloro-N-[4-({[5-methyl-2-(methylamino)quinazolin-4-yl]amino}methyl)phenyl]benzamide] reads over 2890 nM.

With `Cc1ccc2c(NCc3ccc(NC(=O)c4ccc(F)cc4)cc3)nc(N(C)C)nc2c1` [Example 199, N-[4-({[2-(dimethylamino)-7-methylquinazolin-4-yl]amino}methyl)phenyl]-4-fluorobenzamide], in the assay with SV40-Luc (Homo sapiens, SV5A8, 24 h), the IC50 was over 2910 nM. Still for that read-out and setting: with `Cc1ccc2c(NCc3ccc(NC(=O)c4ccc(F)cc4)cc3)nc(N3CCC3)nc2c1` [Example 202, N-(4-{[(2-azetidin-1-yl-7-methylquinazolin-4-yl)amino]methyl}phenyl)-4-fluorobenzamide] the figure was over 2830 nM; with `Cc1ccc2c(NCc3ccc(NC(=O)c4ccc(F)cc4)cc3)nc(N3CCN(C)CC3)nc2c1` [Example 204, 4-fluoro-N-[4-({[7-methyl-2-(4-methylpiperazin-1-yl)quinazolin-4-yl]amino}methyl)phenyl]benzamide], over 10300 nM. The same measure, in the same setting: the result for `Cc1ccc2c(NCc3ccc(NC(=O)c4ccc(F)cc4)cc3)nc(N3CCCCC3)nc2c1` [Example 206, 4-fluoro-N-(4-{[(7-methyl-2-piperidin-1-ylquinazolin-4-yl)amino]methyl}phenyl)benzamide] reads over 2660 nM. For the compound `Cc1ccc2c(NCc3ccc(NC(=O)c4ccc(F)cc4)cc3)nc(N3CCOCC3)nc2c1` [Example 207, 4-fluoro-N-(4-{[(7-methyl-2-morpholin-4-ylquinazolin-4-yl)amino]methyl}phenyl)benzamide], in the assay with SV40-Luc (Homo sapiens, SV5A8, 24 h), the IC50 is over 10600 nM.

`Cc1ccc2c(NCc3ccc(NC(=O)c4ccc(F)cc4)cc3)nc(N3CCNCC3)nc2c1` [Example 208, 4-fluoro-N-(4-{[(7-methyl-2-piperazin-1-ylquinazolin-4-yl)amino]methyl}phenyl)benzamide]: the IC50 with SV40-Luc (Homo sapiens, SV5A8, 24 h) is over 2660 nM.

As for `Cc1ccc2c(NCc3ccc(NC(=O)c4ccc(F)cc4)cc3)nc(N3CCCC3)nc2c1` [Example 209, 4-fluoro-N-(4-{[(7-methyl-2-pyrrolidin-1-ylquinazolin-4-yl)amino]methyl}phenyl)benzamide], in the assay with SV40-Luc (Homo sapiens, SV5A8, 24 h), the IC50 is over 2740 nM.

On to `Cc1ccc2c(NCc3ccc(NC(=O)c4ccc(F)cc4)cc3)nc(N3CCN[C@H](C)C3)nc2c1` [Example 225, 4-fluoro-N-{4-[({7-methyl-2-[(3R)-3-methylpiperazin-1-yl]quinazolin-4-yl}amino)methyl]phenyl}benzamide], for which the half-maximal inhibitory concentration (IC50) with SV40-Luc (Homo sapiens, SV5A8, 24 h) was over 2580 nM.

For `CNc1nc(NCc2ccc(NC(=O)c3ccc(F)cc3)cc2)c2ccc(C)cc2n1` [Example 230, 4-fluoro-N-[4-({[7-methyl-2-(methylamino)quinazolin-4-yl]amino}methyl)phenyl]benzamide], the IC50 with SV40-Luc (Homo sapiens, SV5A8, 24 h) is over 752 nM. Same read-out and setting: the result for `Cc1ccc2c(NCc3ccc(NC(=O)c4ccc(F)cc4)cc3)nc(N3CCNC(C)(C)C3)nc2c1` [Example 236, N-[4-({[2-(3,3-dimethylpiperazin-1-yl)-7-methylquinazolin-4-yl]amino}methyl)phenyl]-4-fluorobenzamide] reads over 5010 nM; that for `CNc1nc(NCc2ccc(NC(=O)c3ccc(Cl)nc3)cc2)c2ccc(C)cc2n1` [Example 264, 6-chloro-N-[4-({[7-methyl-2-(methylamino)quinazolin-4-yl]amino}methyl)phenyl]nicotinamide], over 1440 nM.
